Drawing on patent US10710980B2, “Aminopyridine derivatives and their use as selective ALK-2 inhibitors” (priority 2016, dated 2020), this text covers IC50 for 15 molecules.

The target of assay [1] is T1, wild-type ALK2 (aa172-499) (Homo sapiens (Human), UniProt Q04771). The assay can be described thus: ADPGlo biochemical autophosphorylation assay, ALK2. The settings on record: 15 μm ATP, 60 min at 32° C. Background: ADP-Glo turns the ADP formed in a reaction into a luminescent signal.
Another assay has as its target ALK3 (aa198-525) (Homo sapiens (Human), UniProt P36894). The assay can be described thus: ADPGlo biochemical autophosphorylation assay, ALK3. The note with it: 15 μm ATP, 60 min at 32° C.
For assay [2], the target named is T1, wild-type ALK2 (aa172-499). Description: Caliper biochemical peptide phosphorylation assay, ALK2. The settings on record: 15 μm ATP, 60 min at 30° C.; read-out: ALK2 EPK (IC50).
The next assay has as its target ALK1 (aa166-493) (Homo sapiens (Human), UniProt P37023). Description: Caliper biochemical peptide phosphorylation assay, ALK1. The note with it: 15 μm ATP, 60 min at 30° C.; read-out: ALK1 EPK (IC50).
The target of the next assay is ALK5 (aa162-503) (Homo sapiens (Human), UniProt P36897). The assay can be described thus: Caliper biochemical peptide phosphorylation assay, ALK5. The note with it: 15 μm ATP, 60 min at 30° C.; read-out: ALK5 EPK (IC50).
In another assay the target is ALK6 (aa168-495) (Homo sapiens (Human), UniProt O00238). The assay can be described thus: Caliper biochemical peptide phosphorylation assay, ALK6. The settings on record: 15 μm ATP, 60 min at 30° C.; read-out: ALK6 EPK (IC50).
The subject of assay [3] is BMP response element (BRE) luciferase reporter in HuH7 cells, BMP6 stimulated. Description: BMP signaling reporter gene assay. It is filed as cell-based. The note with it: Homo sapiens, Huh-7; HuH7 BRE-luciferase, BMP6 100 ng/ml, 5 hours; read-out: MSD BMP RGA IC50. Background: In a reporter assay the amount or activity of a reporter protein is the signal.

Sequence of ALK6 (aa168-495) (O00238 168-495): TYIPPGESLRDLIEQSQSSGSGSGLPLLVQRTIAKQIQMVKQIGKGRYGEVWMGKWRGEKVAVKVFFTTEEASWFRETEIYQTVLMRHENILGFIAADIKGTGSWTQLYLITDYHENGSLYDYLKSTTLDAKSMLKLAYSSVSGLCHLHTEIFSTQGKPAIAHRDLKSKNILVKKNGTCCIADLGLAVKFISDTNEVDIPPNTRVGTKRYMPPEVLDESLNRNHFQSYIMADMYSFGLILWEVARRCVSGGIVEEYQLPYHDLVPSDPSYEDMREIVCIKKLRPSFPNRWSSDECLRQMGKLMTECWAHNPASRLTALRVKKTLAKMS
Sequence of ALK3 (aa198-525) (P36894 198-525): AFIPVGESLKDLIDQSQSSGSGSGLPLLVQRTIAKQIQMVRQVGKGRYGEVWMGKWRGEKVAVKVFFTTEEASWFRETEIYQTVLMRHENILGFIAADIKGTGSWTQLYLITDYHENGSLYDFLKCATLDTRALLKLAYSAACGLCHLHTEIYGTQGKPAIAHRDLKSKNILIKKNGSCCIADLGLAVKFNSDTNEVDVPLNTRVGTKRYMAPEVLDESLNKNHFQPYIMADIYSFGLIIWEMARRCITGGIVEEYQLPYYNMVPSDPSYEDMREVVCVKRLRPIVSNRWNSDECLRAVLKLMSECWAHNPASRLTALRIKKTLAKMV
Sequence of ALK1 (aa166-493) (P37023 166-493): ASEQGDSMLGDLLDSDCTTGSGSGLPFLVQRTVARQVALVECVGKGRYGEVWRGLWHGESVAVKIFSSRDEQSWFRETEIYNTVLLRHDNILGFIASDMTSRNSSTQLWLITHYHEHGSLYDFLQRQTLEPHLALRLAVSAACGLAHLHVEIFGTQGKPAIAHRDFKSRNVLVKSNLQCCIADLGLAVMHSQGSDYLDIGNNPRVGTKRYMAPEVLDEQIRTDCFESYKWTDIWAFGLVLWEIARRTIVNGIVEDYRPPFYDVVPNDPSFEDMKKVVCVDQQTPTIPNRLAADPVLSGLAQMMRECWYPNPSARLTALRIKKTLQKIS
T1 sequence (Q04771 172-499): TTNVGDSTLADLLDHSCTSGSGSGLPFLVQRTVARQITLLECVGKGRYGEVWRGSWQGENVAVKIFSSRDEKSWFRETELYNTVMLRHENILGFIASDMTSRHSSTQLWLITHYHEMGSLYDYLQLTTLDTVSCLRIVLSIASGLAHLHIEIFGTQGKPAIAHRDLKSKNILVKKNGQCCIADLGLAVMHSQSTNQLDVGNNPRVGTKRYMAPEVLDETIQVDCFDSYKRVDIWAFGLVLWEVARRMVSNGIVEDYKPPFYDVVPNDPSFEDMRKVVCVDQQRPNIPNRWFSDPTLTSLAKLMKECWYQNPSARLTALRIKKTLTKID
Sequence of ALK5 (aa162-503) (P36897 162-503): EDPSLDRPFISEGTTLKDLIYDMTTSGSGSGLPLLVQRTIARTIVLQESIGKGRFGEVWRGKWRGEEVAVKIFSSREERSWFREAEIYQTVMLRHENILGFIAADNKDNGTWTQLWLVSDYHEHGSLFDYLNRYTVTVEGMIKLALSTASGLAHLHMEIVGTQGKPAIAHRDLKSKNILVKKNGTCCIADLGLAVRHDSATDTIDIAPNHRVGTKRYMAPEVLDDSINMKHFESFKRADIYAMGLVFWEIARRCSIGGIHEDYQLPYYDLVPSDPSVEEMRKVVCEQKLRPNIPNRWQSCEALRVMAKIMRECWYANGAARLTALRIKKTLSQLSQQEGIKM

Consider `Nc1ncc(-c2ccc([C@@]34C[C@@H]3CN(CC3COC3)C4)cc2)cc1C(=O)N[C@H]1CC[C@H](O)CC1` [Example 70, 2-amino-N-((1r,4R)-4-hydroxycyclohexyl)-5-(4-((1R,5S)-3-(oxetan-3-ylmethyl)-3-azabicyclo[3.1.0]hexan-1-yl)phenyl)nicotinamide], for which the IC50 (in general, the point on the concentration scale where inhibition reaches its midpoint) in assay [1] came out at 20 nM; on ALK3 (aa198-525), 2850 nM; in assay [2], 68 nM; at ALK1 (aa166-493), 305 nM; on ALK5 (aa162-503) it was 9400 nM; on ALK6 (aa168-495) it was 8750 nM. In assay [3], the IC50 turned out to be 513 nM.
In the case of `CC(C)N1C[C@@H]2C[C@]2(c2ccc(-c3cnc(N)c(C(=O)N[C@H]4CC[C@@H](O)CC4)c3)cc2)C1` [Example 71, 2-amino-N-((1s,4R)-4-hydroxycyclohexyl)-5-(4-((1S,5R)-3-isopropyl-3-azabicyclo[3.1.0]hexan-1-yl)phenyl)nicotinamide], the IC50 worked out at 22 nM in assay [1]; 2900 nM against ALK3 (aa198-525); 65 nM in assay [2]; 490 nM at ALK1 (aa166-493); 3000 nM on ALK5 (aa162-503); 5800 nM at ALK6 (aa168-495). Moreover, in assay [3], the IC50 was 86 nM.
With `C[C@@H]1CCCN1Cc1ccc(-c2cnc(N)c(C(=O)N[C@H]3CC[C@](C)(O)CC3)c2)c(F)c1F` [Example 74, 2-amino-5-(2,3-difluoro-4-(((R)-2-methylpyrrolidin-1-yl)methyl)phenyl)-N-((1r,4R)-4-hydroxy-4-methylcyclohexyl)nicotinamide], the IC50 in assay [1] came to 64 nM; against ALK3 (aa198-525), 13200 nM; in assay [2] it was 70 nM; on ALK1 (aa166-493), 2500 nM; on ALK5 (aa162-503), 10000 nM; at ALK6 (aa168-495), 10000 nM. In addition, the IC50 in assay [3] came out at 550 nM.
For the molecule `COCCN1C[C@H]2C[C@@]2(c2ccc(-c3cnc(N)c(C(=O)N[C@H]4CC[C@H](O)CC4)c3)cc2)C1` [Example 75, 2-amino-N-((1r,4R)-4-hydroxycyclohexyl)-5-(4-((1R,5S)-3-(2-methoxyethyl)-3-azabicyclo[3.1.0]hexan-1-yl)phenyl)nicotinamide], the IC50 was 11 nM in assay [1]; 1800 nM on ALK3 (aa198-525); 140 nM in assay [2]; 210 nM at ALK1 (aa166-493); 4600 nM at ALK5 (aa162-503); 7700 nM at ALK6 (aa168-495). In assay [3], the IC50 was determined as 330 nM.
In the case of `CC(F)(F)CN1C[C@@H]2C[C@]2(c2ccc(-c3cnc(N)c(C(=O)N[C@H]4CC[C@H](O)CC4)c3)cc2)C1` [Example 76, 2-amino-5-(4-((1S,5R)-3-(2,2-difluoropropyl)-3-azabicyclo[3.1.0]hexan-1-yl)phenyl)-N-((1r,4S)-4-hydroxycyclohexyl)nicotinamide], the IC50 in assay [1] came out at 34 nM; on ALK3 (aa198-525), 3200 nM; in assay [2], 79 nM; on ALK1 (aa166-493), 370 nM; on ALK5 (aa162-503), 9400 nM; at ALK6 (aa168-495), 8400 nM. Moreover, in assay [3], the IC50 came to 2300 nM.
As to `Nc1ncc(-c2ccc([C@@]34C[C@@H]3CN(CC(F)(F)F)C4)cc2)cc1C(=O)N[C@H]1CC[C@H](O)CC1` [Example 77, 2-amino-N-((1r,4R)-4-hydroxycyclohexyl)-5-(4-((1R,5S)-3-(2,2,2-trifluoroethyl)-3-azabicyclo[3.1.0]hexan-1-yl)phenyl)nicotinamide], the IC50 in assay [1] is 28 nM; at ALK3 (aa198-525) it was 3300 nM; in assay [2] it was 80 nM; at ALK1 (aa166-493), 320 nM; on ALK5 (aa162-503), 10000 nM; at ALK6 (aa168-495) it was 8600 nM. Moreover, the IC50 in assay [3] was determined as 1300 nM.
On to `[2H][C@]1(O)CC[C@H](NC(=O)c2cc(-c3ccc([C@]45C[C@H]4CN(C(C)C)C5)cc3)cnc2N)CC1` [Example 78, 2-amino-N-((1r,4S)-4-hydroxycyclohexyl-4-d)-5-(4-((1S,5R)-3-isopropyl-3-azabicyclo[3.1.0]hexan-1-yl)phenyl)nicotinamide], for which the IC50 in assay [1] is 37 nM; at ALK3 (aa198-525) it was 8300 nM; in assay [2], 109 nM; on ALK1 (aa166-493), 310 nM; at ALK5 (aa162-503) it was 7800 nM; on ALK6 (aa168-495) it was 10000 nM. In addition, the IC50 in assay [3] was found to be 220 nM.
For `CN1CCN(C(=O)c2ccc(-c3cnc(N)c(C(=O)N[C@H]4CC[C@@H](O)CC4)c3)cc2)CC1` [Example 79, 2-amino-N-((1s,4s)-4-hydroxycyclohexyl)-5-(4-(4-methylpiperazine-1-carbonyl)phenyl)nicotinamide], the IC50 was 86 nM in assay [1]; 6500 nM on ALK3 (aa198-525); 87 nM in assay [2]; 890 nM at ALK1 (aa166-493); 4100 nM on ALK5 (aa162-503); 10000 nM on ALK6 (aa168-495). For the same molecule, the IC50 in assay [3] was 2700 nM.
For `Nc1ncc(-c2ccc([C@@]34C[C@@H]3CN(C3CCC(F)(F)CC3)C4)cc2)cc1C(=O)NC12CCC(O)(CC1)CC2` [Example 80, 2-amino-5-(4-((1R,5S)-3-(4,4-difluorocyclohexyl)-3-azabicyclo[3.1.0]hexan-1-yl)phenyl)-N-(4-hydroxybicyclo[2.2.2]octan-1-yl)nicotinamide], the 50% inhibitory concentration (IC50) came out at 58 nM in assay [1]; 1800 nM against ALK3 (aa198-525); 87 nM in assay [2]; 680 nM on ALK1 (aa166-493); 6600 nM on ALK5 (aa162-503); 4600 nM at ALK6 (aa168-495). Besides, the IC50 in assay [3] worked out at 58 nM.
As to `C[C@@H]1CCCN1Cc1ccc(-c2cnc(N)c(C(=O)N[C@H]3CC[C@](C)(O)CC3)c2)c(Cl)c1` [Example 81, 2-amino-5-(2-chloro-4-(((R)-2-methylpyrrolidin-1-yl)methyl)phenyl)-N-((1r,4R)-4-hydroxy-4-methylcyclohexyl)nicotinamide], the IC50 in assay [1] was determined as 150 nM; against ALK3 (aa198-525) it was 15100 nM; in assay [2], 110 nM; at ALK1 (aa166-493) it was 3000 nM; on ALK5 (aa162-503), 10000 nM; on ALK6 (aa168-495), 10000 nM. For the same molecule, in assay [3], the IC50 was found to be 1250 nM.
On to `C[C@]1(O)CC[C@H](NC(=O)c2cc(-c3ccc([C@@]45C[C@@H]4CN(C4CCC(F)(F)CC4)C5)cc3)cnc2N)CC1` [Example 82, 2-amino-5-(4-((1R,5S)-3-(4,4-difluorocyclohexyl)-3-azabicyclo[3.1.0]hexan-1-yl)phenyl)-N-((1r,4R)-4-hydroxy-4-methylcyclohexyl)nicotinamide], for which the IC50 in assay [1] was 82 nM; on ALK3 (aa198-525), 9500 nM; in assay [2] it was 117 nM; at ALK1 (aa166-493), 1600 nM; at ALK5 (aa162-503), 10000 nM; on ALK6 (aa168-495), 10000 nM. Further, in assay [3], the IC50 worked out at 56 nM.
In the case of `CC(C)(O)C12CC(NC(=O)c3cc(-c4ccc([C@@]56C[C@@H]5CN(C5CCOCC5)C6)cc4)cnc3N)(C1)C2` [Example 83, 2-amino-N-(3-(2-hydroxypropan-2-yl)bicyclo[1.1.1]pentan-1-yl)-5-(4-((1R,5S)-3-(tetrahydro-2H-pyran-4-yl)-3-azabicyclo[3.1.0]hexan-1-yl)phenyl)nicotinamide], the half-inhibitory concentration (IC50) in assay [1] was 100 nM; against ALK3 (aa198-525), 15100 nM; in assay [2] it was 145 nM; at ALK1 (aa166-493) it was 5600 nM; at ALK5 (aa162-503) it was 10000 nM; at ALK6 (aa168-495), 10000 nM. For the same molecule, in assay [3], the IC50 came to 360 nM.
Turning to `Nc1ncc(-c2cccc(C(=O)N3CCOCC3)c2)cc1C(=O)NC1CCCCC1` [Example 84, 2-amino-N-cyclohexyl-5-(3-(morpholine-4-carbonyl)phenyl)nicotinamide], the IC50 in assay [1] worked out at 2400 nM; against ALK3 (aa198-525), 21900 nM; in assay [2] it was 350 nM; at ALK1 (aa166-493), 20200 nM; on ALK5 (aa162-503) it was 20200 nM; at ALK6 (aa168-495), 20200 nM. The concentration for half-maximal inhibition (IC50) in assay [3] turned out to be 9500 nM.
Regarding `C[C@@H]1CCCN1Cc1ccc(-c2cnc(N)c(C(=O)N[C@H]3CC[C@](C)(O)CC3)c2)cc1Cl` [Example 85, 2-amino-5-(3-chloro-4-(((R)-2-methylpyrrolidin-1-yl)methyl)phenyl)-N-((1r,4R)-4-hydroxy-4-methylcyclohexyl)nicotinamide], the concentration for half-maximal inhibition (IC50) in assay [1] was found to be 190 nM; on ALK3 (aa198-525), 15100 nM; in assay [2], 170 nM; on ALK1 (aa166-493), 9800 nM; on ALK5 (aa162-503), 10000 nM; at ALK6 (aa168-495), 10000 nM. Besides, in assay [3], the IC50 amounted to 860 nM.
With `C[C@H](c1ccc(-c2cnc(N)c(C(=O)N[C@]3(C)CC[C@@H](O)CC3)c2)cc1)N1CC2(COC2)C1` [Example 86, 5-(4-((R)-1-(2-oxa-6-azaspiro[3.3]heptan-6-yl)ethyl)phenyl)-2-amino-N-((1r,4R)-4-hydroxy-1-methylcyclohexyl)nicotinamide], the IC50 in assay [1] stood at 110 nM; at ALK3 (aa198-525), 8200 nM; in assay [2], 205 nM; at ALK1 (aa166-493), 2300 nM; on ALK5 (aa162-503), 10000 nM; at ALK6 (aa168-495), 10000 nM. Further, in assay [3], the IC50 was found to be 1080 nM.
